Laboratory results: patent US20040132643A1 (priority 2004, published 2004)

Tests used:
[1] = test system: FTC 133 cells; details: 1 ng/ml FR901228 for 72 hours
Description: (§1) FTC 133 and FTC 236 cells were derived from cultures obtained from the primary tumor (FTC 133) and a nodal metastasis (FTC 236) of a human follicular thyroid carcinoma. […] Anaplastic thyroid carcinoma lines SW-1736 and KAT-4 were derived from primary cultures of human anaplastic thyroid carcinoma tumors.
(§2) Each of these four cell lines was exposed to varying concentrations of FR901228 (0.01 ng/ml, 0.1 ng/ml, 1 ng/ml, 10 ng/ml) for 72 hours, following which cell viability was determined using the 3-[4,5-dimethylthiazol-2-yl]-2,5-diphenyl tetrazoliumbromide (MTT) assay, as described in Mosmann, J Immunol Methods 65:55-63, 1983, and Den Boer et al., Br. J. Haem. 105: 876-882, 2000. The MTT assay is a colorimetric assay of the loss of mitochondrial metabolic activity associated with cell death.

[2] = test system: FTC 236 cells; details: 1 ng/ml FR901228 for 72 hours
Description: as §1, §2

[3] = test system: KAT-4 cells; details: 1 ng/ml FR901228 for 72 hours
Description: as §1, §2

[4] = test system: SW-1736 cells; details: 1 ng/ml FR901228 for 72 hours
Description: as §1, §2

[5] = test system: histone deacetylase; assay: Histone acetylation by immunofluorescence microscopy (anti-acetylated histone H3) in thyroid carcinoma cells; type: cell-based, human; details: 1 ng/ml FR901228 for 72 hours
Description: Histone acetylation was detected by immunofluorescence microscopy. In this experimental approach, fixed cells are exposed to a primary antibody that specifically binds to acetylated histones, and then exposed to an FITC-labeled secondary antibody that binds to the primary antibody.
FTC 236 and SW-1736 cells were cultured as described in Example 1, and treated for 72 hours with 1 ng/ml FR901228. Control FTC 236 and SW-1736 received no FR901228, but were otherwise treated identically to the FR901228-exposed cells. After 72 hours, each culture was treated with trypsin, harvested, and subjected to low speed centrifugation to form a cell pellet. Cells from each pellet were placed on microscope slides and fixed with 95% ethanol/5% acetic acid for one minute at room temperature. After fixation, slides were washed twice with phosphate buffered saline (PBS) for 15 minutes, treated with 8% bovine serum albumin in PBS for one hour at room temperature, and washed 15 minutes in PBS.
The fixed cells were then incubated overnight at 4° C. with 5 ug/ml anti-alpha acetylated histone H3 in 2% bovine serum albumin in PBS (antibody obtained from Upstate Biotechnology, Lake Placid N.Y.). Subsequently, cells were washed twice with PBS for five minutes at room temperature and then incubated with horse anti-rabbit FITC-conjugated secondary antibody (from Vector Labs, Burlingame Calif.). […]

[6] = test system: TG promoter-enhancer element; assay: TG-luciferase reporter assay in transfected thyroid carcinoma cells; type: cell-based, human; details: 1 ng/ml FR901228; for enhancement in luciferase activity over that observed in untreated cells / enhancement over RLU observed in untreated cells: TG-luc
[7] = test system: thymidine kinase (TK) promoter enhancer; assay: TK-luciferase reporter assay (positive control) in transfected thyroid carcinoma cells; type: cell-based, human; details: 1 ng/ml FR901228
From the text: As a positive control, FTC 236 and SW-1736 cells were transfected with a reporter plasmid encoding luciferase operably linked to the thymidine kinase (TK) promoter enhancer. The TK promoter enhancer is a constitutively active promoter element, meaning that it is not thyroid-specific and is fully active in all cell types.
For transfection, FTC 236 and SW-1736 cells were exposed to a transfection mixture of 0.5 micrograms of plasmid DNA, 4.5 microliters TransFast transfection reagent (Promega, Madison Wis.) and 200 microliters of RPMI medium. Plasmid DNA was either a TG-luciferase (TG-luc) construct or a TK-luciferase (TK-luc) construct. All transfections were performed in triplicate.
After incubating cells for one hour with the transfection mixture, cells were cultured in the presence or absence of 1 ng/ml FR901228 for two days. Cells were then harvested and lysed, and an extract of cellular protein was obtained. Total protein concentration in the extract was determined using the Bio-Rad protein assay system (Bio-Rad, Richmond Calif.). Luciferase activity was determined using the Luciferase Assay System (Promega, Madison Wis.), and was normalized to total protein concentration. […]

[8] = test system: thyroglobulin; assay: RT PCR and northern blot analysis of thyroglobulin expression in thyroid carcinoma cells; type: cell-based, human
Description: (§3) RT PCR and Northern blot analysis are described in detail in a number of standard molecular biology reference works, for example Ausubel et al., Short Protocols in Molecular Biology, John Wiley & Sons, 1998.
(§4) Total RNA was extracted from FR901228-treated and untreated thyroid carcinoma cells using RNA STAT-60 (Tel-Test, Inc.), at 24 hours, 48 hours, and 72 hours following addition of FR901228-containing or control solution to the cell cultures. RNA was also extracted from normal thyroid cells for purposes of comparison. The extracted RNA was used without further modification for northern blots. For RT PCR, the extracted RNA was reverse transcribed into cDNA using standard techniques.
Oligonucleotide primers used for PCR analysis of human thyroglobulin expression were: […]
Using these primers, the presence of human thyroglobulin cDNA template is reflected by a 219 bp PCR product.

[9] = test system: Na+/I- symporter; assay: RT PCR and northern blot analysis of Na+/I- symporter expression in thyroid carcinoma cells; type: cell-based, human
Description: as §3, §4
Oligonucleotide primers used for PCR analysis of human Na^+/I^− symporter expression were:
Using these primers, the presence of human Na^+/I^− symporter cDNA template is reflected by a 303 bp PCR product.

[10] = test system: Na+/I- symporter; assay: 125I iodine accumulation study in thyroid carcinoma cells; type: cell-based, human
Description: To evaluate the function of the Na^+/I^− symporter, iodine accumulation studies were performed. FTC 133, FTC 236 SW-1736 and KAT-4 cells were treated with 1 ng/ml FR901228 for two or three days, or left untreated. Cells were then incubated in 0.5 ml of Hanks' Balanced Salt Solution (HBSS; Life Technologies, Inc., Eggenstein, Germany) containing approximately 2 μCi carrier-free Na^125I (DuPont NEN, Boston, Mass.) and 30 μM NaI] ^125I for 10 minutes. For perchlorate studies NaCIO4 was added as a 100X solution in HBSS, to a final concentration of 30 and 100 μM, immediately after the addition of radiolabeled iodine. Excess radiolabeled iodine was then removed, and the amount of ^125I accumulated in the cells was determined by gamma counting.

[11] = ATC cells, 72 hours of FR901228 exposure
[12] = FTC cells, 72 hours of FR901228
[13] = FTC cells, RT PCR and northern blot

C/C=C1\NC(=O)[C@H]2CSSCC/C=C/[C@H](CC(=O)N[C@H](C(C)C)C(=O)N2)OC(=O)[C@H](C(C)C)NC1=O [FR901228]
cytotoxicity (cell viability, MTT assay) [1]: not significantly cytotoxic
cytotoxicity (cell viability, MTT assay) [2]: not significantly cytotoxic
cytotoxicity (cell viability, MTT assay) [3]: not significantly cytotoxic
cytotoxicity (cell viability, MTT assay) [4]: not significantly cytotoxic
histone acetylation (nuclear fluorescence) relative to the control cells ([5]; FTC 236 cells): marked increase
histone acetylation (nuclear fluorescence) relative to the control cells ([5]; SW-1736 cells): marked increase
relative luciferase units (RLU) in TG-luc transfected cells, TK luc = 100% ([6]; FTC 133 cells): about 1000%
enhancement in luciferase activity over that observed in untreated cells ([6]; FTC 133 cells): greater than tenfold
relative luciferase units (RLU) in TG-luc transfected cells, TK luc = 100% ([6]; FTC 236 cells): about 1000%
enhancement in luciferase activity over that observed in untreated cells ([6]; FTC 236 cells): greater than tenfold
relative luciferase units (RLU) in TG-luc transfected cells, TK luc = 100% ([6]; KAT-4 cells): 400-500%
enhancement over RLU observed in untreated cells ([6]; KAT-4 cells): greater than ten-fold
relative luciferase units (RLU) in TG-luc transfected cells, TK luc = 100% ([6]; SW-1736 cells): 400-500%
enhancement over RLU observed in untreated cells ([6]; SW-1736 cells): greater than ten-fold
effect on luciferase activity in TK luc-transfected cells [7]: no effect
time after FR901228 at which increased TG expression was first observed ([8]; ATC cells): 48 h
TG expression after 72 hours [8, 11]: further increases
TG expression after 72 hours [8, 12]: further increases
time following addition of FR901228 at which increased TG expression was detected [8, 13]: ≤ 24 h
time after FR901228 at which increased Na+/I- symporter expression was first observed ([9]; ATC cells): 48 h
Na+/I- symporter expression after 72 hours [9, 11]: further increases
Na+/I- symporter expression after 72 hours [9, 12]: further increases
time following addition of FR901228 at which increased Na+/I- symporter expression was detected [9, 13]: ≤ 24 h
iodine (125I) accumulation ([10]; four cell lines (FTC 133, FTC 236, SW-1736, KAT-4), 1 ng/ml FR901228, two and three days): Marked increases

[O-][Cl+3]([O-])([O-])O [sodium perchlorate]
inhibition of iodine (125I) accumulation ([10]; FR901228-treated thyroid carcinoma cells, perchlorate 30 and 100 μM): inhibited in a dose-dependent manner
